For 34 molecules, IC50 results are on record in US10577363B2, “Substituted piperidine compounds” (EPIZYME, INC., priority 2014, dated 2020).

The target of this assay is SMYD3 (Homo sapiens (Human), UniProt Q9H7B4). Briefly: SMYD3 biochemical assay (SPA, 3H-SAM methylation of MEKK2 protein substrate). As to conditions: read-out: SMYD3 Biochem IC50 (μM)*. The procedure, abridged: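 Native full-length human SMYD3 (E. coli-expressed, tags removed) was preincubated with compound for 30 min at room temperature in 25 mM Tris-Cl pH 8.0, 1 mM TCEP, 0.005% BSG, 0.005% Tween 20. Reaction was started with 3H-SAM plus GST-MEKK2, quenched with 100 uM unlabeled SAM, and read by SPA scintillation counting.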
For orientation: IC50 means the midpoint of a concentration-inhibition curve. In the case of `C[C@@H]1CC(NC(=O)c2cc(C3CC3)on2)CCN1C(=O)CC1(O)CCNCC1` (stereo partly drawn) [compound 167, 5-cyclopropyl-N-((2R)-1-(2-(4-hydroxypiperidin-4-yl)acetyl)-2-methylpiperidin-4-yl)isoxazole-3-carboxamide], the IC50 was 0.911 µM.

Turning to `CCC1(C(=O)N2CCC(NC(=O)c3cc(C4CC4)on3)C[C@H]2C)CCNCC1` (stereo partly drawn) [compound 168, 5-cyclopropyl-N-((2R)-1-(4-ethylpiperidine-4-carbonyl)-2-methylpiperidin-4-yl)isoxazole-3-carboxamide], the IC50 amounted to 3.18 µM.

Regarding `CCC1(C(=O)N2CCC(NC(=O)c3cc(C4CC4)on3)C[C@@H]2C)CCNCC1` (stereo partly drawn) [compound 169, 5-cyclopropyl-N-((2S)-1-(4-ethylpiperidine-4-carbonyl)-2-methylpiperidin-4-yl)isoxazole-3-carboxamide], the IC50 came to 3.77 µM.

With `C[C@@H]1CC(NC(=O)c2cc(C3CC3)on2)CCN1C(=O)C1(F)CCNCC1` (stereo partly drawn) [compound 170, 5-cyclopropyl-N-((2R)-1-(4-fluoropiperidine-4-carbonyl)-2-methylpiperidin-4-yl)isoxazole-3-carboxamide], the IC50 was determined as 0.677 µM.

Take `C[C@@H]1C[C@H](NC(=O)c2cc(C3CC3)on2)CCN1C(=O)CCCN` [compound 171, N-((2R,4R)-1-(4-aminobutanoyl)-2-methylpiperidin-4-yl)-5-cyclopropylisoxazole-3-carboxamide]: the IC50 turned out to be 3.11 µM.

`C[C@@H]1C[C@H](NC(=O)c2cc(C3CC3)on2)CCN1C(=O)CC(O)CN` (stereo partly drawn) [compound 172, N-((2R,4R)-1-(4-amino-3-hydroxybutanoyl)-2-methylpiperidin-4-yl)-5-cyclopropylisoxazole-3-carboxamide]: the IC50 stood at 6.78 µM.

Consider `C[C@H]1CC(NC(=O)c2cc(C3CC3)on2)CCN1C(=O)CC(O)CN` (stereo partly drawn) [compound 173, N-((2S)-1-(4-amino-3-hydroxybutanoyl)-2-methylpiperidin-4-yl)-5-cyclopropylisoxazole-3-carboxamide], for which the IC50 worked out at 5.26 µM.

As for `C[C@@H]1CC(NC(=O)c2cc(C3CC3)on2)CCN1C(=O)[C@H]1CCC[C@H](N)C1` (stereo partly drawn) [compound 174, N-((2R)-1-((1S,3S)-3-aminocyclohexane-1-carbonyl)-2-methylpiperidin-4-yl)-5-cyclopropylisoxazole-3-carboxamide], the IC50 is 0.728 µM.

On to `C[C@H]1CC(NC(=O)c2cc(C3CC3)on2)CCN1C(=O)CCC1CCNC1` (stereo partly drawn) [compound 176, 5-cyclopropyl-N-((2S)-2-methyl-1-(3-(pyrrolidin-3-yl)propanoyl)piperidin-4-yl)isoxazole-3-carboxamide], for which the concentration for half-maximal inhibition (IC50) came to 0.624 µM.

Regarding `C[C@H]1CC(NC(=O)c2cc(C3CC3)on2)CCN1C(=O)C1CNCC(O)C1` (stereo partly drawn) [compound 177, 5-cyclopropyl-N-((2S)-1-(5-hydroxypiperidine-3-carbonyl)-2-methylpiperidin-4-yl)isoxazole-3-carboxamide], the IC50 was above 10 µM.

With `C[C@H]1CC(NC(=O)c2cc(C3CC3)on2)CCN1C(=O)C1CC2(CCNC2)C1` (stereo partly drawn) [compound 178, 5-cyclopropyl-N-((2S)-2-methyl-1-(6-azaspiro[3.4]octane-2-carbonyl)piperidin-4-yl)isoxazole-3-carboxamide], the IC50 worked out at 2.02 µM.

For `C[C@H]1CC(NC(=O)c2cc(C3CC3)on2)CCN1C(=O)C1CC12CCNCC2` (stereo partly drawn) [compound 179, 5-cyclopropyl-N-((2S)-2-methyl-1-(6-azaspiro[2.5]octane-1-carbonyl)piperidin-4-yl)isoxazole-3-carboxamide], the IC50 turned out to be 1.42 µM.

Regarding `C[C@@H]1CC(NC(=O)c2cc(C3CC3)on2)CCN1C(=O)CCC1CCNC1` (stereo partly drawn) [compound 180, 5-cyclopropyl-N-((2R)-2-methyl-1-(3-(pyrrolidin-3-yl)propanoyl)piperidin-4-yl)isoxazole-3-carboxamide], the concentration for half-maximal inhibition (IC50) was 0.953 µM.

For the molecule `N[C@H]1CC[C@@H](C(=O)N2CCC(NC(=O)c3cc(C4CC4)on3)CC2)C1` [compound 182, N-(1-((1R,3S)-3-aminocyclopentane-1-carbonyl)piperidin-4-yl)-5-cyclopropylisoxazole-3-carboxamide], the IC50 was 4.79 µM.

With `C[C@@H]1C[C@@H](NC(=O)c2cc(C3CC3)on2)CCN1C(=O)CCCCN` [compound 184, N-((2R,4S)-1-(5-aminopentanoyl)-2-methylpiperidin-4-yl)-5-cyclopropylisoxazole-3-carboxamide], the IC50 amounted to 2.67 µM.

`C[C@@H]1C[C@@H](NC(=O)c2cc(C3CC3)on2)CCN1S(=O)(=O)Cc1ccccc1` [compound 185, N-((2R,4S)-1-(benzylsulfonyl)-2-methylpiperidin-4-yl)-5-cyclopropylisoxazole-3-carboxamide]: the IC50 came out at 4.31 µM.

On to `C[C@@H]1C[C@@H](NC(=O)c2cc(C3CC3)on2)CCN1S(=O)(=O)CC(F)(F)F` [compound 186, 5-cyclopropyl-N-((2R,4S)-2-methyl-1-((2,2,2-trifluoroethyl)sulfonyl)piperidin-4-yl)isoxazole-3-carboxamide], for which the IC50 was above 10 µM.

With `C[C@H]1C[C@H](NC(=O)c2cc(C3CC3)on2)CCN1S(=O)(=O)CCCN` [compound 188, N-((2S,4R)-1-((3-aminopropyl)sulfonyl)-2-methylpiperidin-4-yl)-5-cyclopropylisoxazole-3-carboxamide], the IC50 is 0.0723 µM.

Regarding `CC[C@@H]1CN(C(=O)[C@H]2CC[C@H](N)CC2)CC[C@@H]1NC(=O)c1cc(C2CC2)on1` [compound 190, N-((3R,4S)-1-((1r,4R)-4-aminocyclohexane-1-carbonyl)-3-ethylpiperidin-4-yl)-5-cyclopropylisoxazole-3-carboxamide], the IC50 is 0.352 µM.

As for `N[C@H]1CC[C@H](C(=O)N2C3CCC2CC(NC(=O)c2cc(C4CC4)on2)C3)CC1` (stereo partly shown) [compound 191, N-(8-((1r,4r)-4-aminocyclohexane-1-carbonyl)-8-azabicyclo[3.2.1]octan-3-yl)-5-cyclopropylisoxazole-3-carboxamide], the IC50 was above 10 µM.

Regarding `CCOC(=O)[C@@H]1CC(NC(=O)c2cc(C3CC3)on2)CCN1C(=O)[C@H]1CC[C@H](N)CC1` (stereo partly drawn) [compound 192, ethyl (2S)-1-((1r,4S)-4-aminocyclohexane-1-carbonyl)-4-(5-cyclopropylisoxazole-3-carboxamido)piperidine-2-carboxylate], the IC50 is 7.08 µM.

Regarding `C[C@@H]1CN(C(=O)CCCN)CC[C@@H]1NC(=O)c1cc(C2CC2)on1` [compound 193, N-((3R,4S)-1-(4-aminobutanoyl)-3-methylpiperidin-4-yl)-5-cyclopropylisoxazole-3-carboxamide], the IC50 is 2.87 µM.

For the molecule `C[C@H]1CN(C(=O)CCCN)CC[C@H]1NC(=O)c1cc(C2CC2)on1` [compound 194, N-((3S,4R)-1-(4-aminobutanoyl)-3-methylpiperidin-4-yl)-5-cyclopropylisoxazole-3-carboxamide], the IC50 was determined as 1.37 µM.

For `C[C@@H]1CN(C(=O)CCCN)CC[C@H]1NC(=O)c1cc(C2CC2)on1` [compound 195, N-((3R,4R)-1-(4-aminobutanoyl)-3-methylpiperidin-4-yl)-5-cyclopropylisoxazole-3-carboxamide], the IC50 is above 10 µM.

Consider `C[C@H]1CN(C(=O)CCCN)CC[C@@H]1NC(=O)c1cc(C2CC2)on1` [compound 196, N-((3S,4S)-1-(4-aminobutanoyl)-3-methylpiperidin-4-yl)-5-cyclopropylisoxazole-3-carboxamide], for which the concentration for half-maximal inhibition (IC50) was 6.91 µM.

In the case of `NCCCC(=O)N1CCC(NC(=O)c2cc(C3CC3)on2)C(F)(F)C1` (stereo not shown) [compound 197, N-(1-(4-aminobutanoyl)-3,3-difluoropiperidin-4-yl)-5-cyclopropylisoxazole-3-carboxamide], the IC50 is above 10 µM.

For `NCCCC(=O)N1CCC(NC(=O)c2cc(C3CC3)on2)C2(CC2)C1` (stereo not shown) [compound 198, N-(5-(4-aminobutanoyl)-5-azaspiro[2.5]octan-8-yl)-5-cyclopropylisoxazole-3-carboxamide], the IC50 was 0.83 µM.

With `NCCCC(=O)N1C2CCC1CC(NC(=O)c1cc(C3CC3)on1)C2` (stereo not shown) [compound 199, N-(8-(4-aminobutanoyl)-8-azabicyclo[3.2.1]octan-3-yl)-5-cyclopropylisoxazole-3-carboxamide], the IC50 came out at 0.678 µM.

As for `C[C@H]1CC(NC(=O)c2cc(C3CC3)on2)CCN1C(=O)N1CCC(N)CC1` (stereo partly drawn) [compound 201, N-((2S)-1-(4-aminopiperidine-1-carbonyl)-2-methylpiperidin-4-yl)-5-cyclopropylisoxazole-3-carboxamide], the IC50 is 2.23 µM.

For `CC1C(NC(=O)c2cc(C3CC3)on2)CCN(C(=O)[C@H]2CC[C@H](N)CC2)C1C` (stereo partly shown) [compound 203, N-(1-((1r,4r)-4-aminocyclohexane-1-carbonyl)-2,3-dimethylpiperidin-4-yl)-5-cyclopropylisoxazole-3-carboxamide], the IC50 came to 0.379 µM.

Consider `C[C@H]1CC(NC(=O)c2cc(C3CC3)on2)CCN1C(=O)CC1(CN)CCC1` (stereo partly drawn) [compound 204, N-((2S)-1-(2-(1-(aminomethyl)cyclobutyl)acetyl)-2-methylpiperidin-4-yl)-5-cyclopropylisoxazole-3-carboxamide], for which the IC50 amounted to 4.68 µM.

Regarding `C[C@@H]1CC(NC(=O)c2cc(C3CC3)on2)CCN1C(=O)CC1(CN)CCC1` (stereo partly drawn) [compound 205, N-((2R)-1-(2-(1-(aminomethyl)cyclobutyl)acetyl)-2-methylpiperidin-4-yl)-5-cyclopropylisoxazole-3-carboxamide], the IC50 turned out to be 1.99 µM.

On to `CC1CNCCC1CC(=O)N1CCC(NC(=O)c2cc(C3CC3)on2)C[C@@H]1C` (stereo partly drawn) [compound 206, 5-cyclopropyl-N-((2S)-2-methyl-1-(2-(3-methylpiperidin-4-yl)acetyl)piperidin-4-yl)isoxazole-3-carboxamide], for which the IC50 turned out to be 1.59 µM.

On to `C[C@H]1CC(NC(=O)c2cc(C3CC3)on2)CCN1C(=O)C1(F)CCNCC1` (stereo partly drawn) [compound 207, 5-cyclopropyl-N-((2S)-1-(4-fluoropiperidine-4-carbonyl)-2-methylpiperidin-4-yl)isoxazole-3-carboxamide], for which the IC50 came to 2.6 µM.
